Test [1] addresses T1, P. papatasi D7 protein AGE83092 (Phlebotomus papatasi, UniProt M1JMQ7).
T1 construct: made in house; host or cells: E. coli BL21 (DE3) pLysS
Description: biochemical. It counts as binding. The procedure: (§1) For cysteinyl leukotriene experiments, the calorimeter cell was filled with P. papatasi D7 protein AGE83092 (A–C) or P. duboscqi ABI15936 (E–G) at 2 μM in Tris-buffered saline. The syringe contained 20 μM LTC4 (A,E), LTD4 (B,F) and LTE4 (C,G) in the same buffer. Injections (10 µL) were spaced at 300 s intervals. […] The syringe concentration was 50 µM AGE83092 and 100 µM for ABI15936. Heats were recorded on a VP-ITC MicroCalorimeter and data were fit using a single binding site model on the MicroCal software package (Origin 7) for calculation of thermodynamic parameters. Titration curves are representative of at least 3 measurements.
(§2) Proteins were diluted in 20 mM tris pH 7.4, 150 mM NaCl and degassed. […] These were sonicated for 10 minutes in a water bath sonicator and degassed before use. Biogenic amines were dissolved in the same buffer and degassed. Heats were measured with a MicroCal VP-ITC calorimeter (Malvern, United Kingdom) using 10 μl ligand injections over periods of 20 seconds with 300 seconds spacing the injections. The measured heats were integrated and fit to a single-site binding model using the MicroCal Origin software.

The target in the next test is T2, P. duboscqi ABI15936 (Phlebotomus duboscqi, UniProt Q06KA2).
T2 construct: made in house; host or cells: E. coli BL21 (DE3) pLysS
T2 sequence (Q06KA2 20-249 limits assumed): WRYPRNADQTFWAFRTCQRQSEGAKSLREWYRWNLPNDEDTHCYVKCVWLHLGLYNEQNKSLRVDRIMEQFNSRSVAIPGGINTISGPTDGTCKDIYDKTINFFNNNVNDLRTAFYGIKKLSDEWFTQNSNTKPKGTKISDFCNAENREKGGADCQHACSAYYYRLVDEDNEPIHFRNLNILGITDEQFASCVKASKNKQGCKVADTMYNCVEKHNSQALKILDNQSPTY
The test is described as follows: biochemical. Format: binding. The settings on record: for affinities (1/Ka): range printed for both proteins (AGE83092 and ABI15936) together; for binding of biogenic amines: ITC (Fig. S1). As to the method:
as §1
Figure 7 Binding pocket interactions in ABI15936. (A) Stereoview of bound Triton X-100 with weighted omit electron density (Fo-Fc) contoured at 3 σ covering the ligand. Carbon atoms are colored green and oxygen atoms are colored red (B). […] In the protein, carbon is colored light grey, oxygen is colored red and nitrogen is colored blue. […] The refined position is shown in green and the rotated position in white.
as §2

The next test has as its system AeD7. Also on record: method as in PMID 19234127, PMID 21152418. To be noted: cited from earlier work.
Another test concerns AnStD7L1. The settings on record: cited from earlier work.
Setting [2] is: ITC, single binding site model, Tris-buffered saline, protein 2 μM (10 µM for U46619), protein prepared with Triton X-100.
The mark [3] stands for this setting: ITC, single binding site model, protein prepared with Triton X-100.
[4] abbreviates: ITC, protein prepared without Triton X-100.

Consider six molecules from paper PMC6440969, “Functional and structural similarities of D7 proteins in the independently-evolved salivary secretions of sand flies and mosquitoes” (Scientific Reports, 2019).

Structures are written as SMILES. Where two headings read alike, the source gives them in different places.

T1 sequence (M1JMQ7 20-254 limits assumed): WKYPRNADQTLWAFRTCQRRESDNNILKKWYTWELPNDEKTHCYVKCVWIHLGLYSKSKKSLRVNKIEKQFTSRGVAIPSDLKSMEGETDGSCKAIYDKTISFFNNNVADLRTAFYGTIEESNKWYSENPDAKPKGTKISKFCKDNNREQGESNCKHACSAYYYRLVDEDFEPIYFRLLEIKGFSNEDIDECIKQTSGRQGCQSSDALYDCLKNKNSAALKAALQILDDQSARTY

On to `CCCCC/C=C\C\C=C/C=C/C=C/[C@@H](SC[C@H](N)C(=O)O)[C@@H](O)CCCC(=O)O` [LTE4], for which the results for the Ka (in test [1]; on P. duboscqi ABI15936 (setting [2])) were 6.3e+07 M⁻¹ and 3.4e+07 M⁻¹, respectively. Also, the ΔH in test [1] (ITC, single binding site model) was -11.3 kcal/mol; at P. duboscqi ABI15936 (setting [3]), -7.0 kcal/mol. Also, at P. duboscqi ABI15936 (ITC), the “affinities (1/Ka)” value lay within 16 to 29 nM.
For `CCCCC/C=C\C\C=C/C=C/C=C/[C@@H](SC[C@H](N)C(=O)NCC(=O)O)[C@@H](O)CCCC(=O)O` [LTD4], the ΔH is -10.2 kcal/mol in test [1] (ITC, single binding site model) and -8.9 kcal/mol on P. duboscqi ABI15936 (setting [3]). For the same molecule, the Kd in test [1] (Ka) is 1.75 nM; in test [1] (affinities (1/Ka)) it was 2 to 6 nM; at P. duboscqi ABI15936 (Ka) it was 4.17 nM; on P. duboscqi ABI15936 (affinities (1/Ka)), 2 to 6 nM.
With `NCCc1c[nH]cn1` [histamine], the “binding of biogenic amines” value (in test [1]; at P. duboscqi ABI15936) was “did not bind” throughout.
`CCCCC[C@H](O)/C=C/[C@@H]1[C@@H](C/C=C\CCCC(=O)O)[C@H]2CO[C@@H]1C2` [U46619]: the Ka in test [1] was determined as 1.33e+06 M⁻¹; on P. duboscqi ABI15936 (setting [2]), 780000 M⁻¹. Further, the values for the ΔH (in test [1]; at P. duboscqi ABI15936 (setting [3])) were -8.5 kcal/mol and -11.5 kcal/mol, respectively. For the same molecule, the Kd was approximately 750 nM in test [1] (read-out: affinity constant) and approximately 1300 nM on P. duboscqi ABI15936 (ITC, read-out: affinity constant). Moreover, the “affinity for AeD7” value in the test with AeD7 was “no affinity”. Moreover, in the test on AnStD7L1, the “binding to AnStD7L1” value is “bound”.
Consider `CCCCC/C=C\C\C=C/C=C/C=C/[C@@H](SC[C@H](NC(=O)CC[C@H](N)C(=O)O)C(=O)NCC(=O)O)[C@@H](O)CCCC(=O)O` [LTC4], for which the results for the Ka (in test [1]; on P. duboscqi ABI15936 (setting [2]); at P. duboscqi ABI15936 (setting [4])) were 1.7e+08 M⁻¹, 3.1e+08 M⁻¹ and 2.2e+08 M⁻¹, respectively. In addition, the “affinities (1/Ka)” value (in test [1]; at P. duboscqi ABI15936 (ITC)) was 2 to 6 nM throughout. Besides, the ΔH in test [1] (ITC, single binding site model) was -10.3 kcal/mol; on P. duboscqi ABI15936 (setting [3]), -8.6 kcal/mol; at P. duboscqi ABI15936 (setting [4]), -10.0 kcal/mol.
On to `NCCc1c[nH]c2ccc(O)cc12` [serotonin], for which the “binding of biogenic amines” value (in test [1] (ITC (Fig. S1)); on P. duboscqi ABI15936) was “did not bind” each time.
